The results in this text go back to patent US20230150974A1 (Foghorn Therapeutics Inc., priority 2020, published 2023).

In experiment [1] the target is T1, HiBit-BRG1 (Homo sapiens, UniProt P51532).
T1 construct: expressed in transfected cells
Kind of experiment: HiBit-BRG1 cell-based degradation assay (Nano-Glo HiBiT Lytic Detection). As to conditions: HeLa cells expressing HiBit-BRG1 and LgBit, 24 h; for DC50: read-out: BRG1 HiBit Degradation IC50; for Dmax: read-out: BRG1 HiBit Degradation Maximum (%). The essentials:
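Percent degradation derived from lytic HiBiT signal, normalized to DMSO-treated cells and to cells given 2 μM of a known BRM/BRG1 degrader. The HeLa line stably expressed HiBit-BRG1 and LgBit; treatment lasted 24 h at 5000 cells per well.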

Experiment [2] deals with T2, HiBiT-BRM (Homo sapiens, UniProt P51531).
T2 construct: expressed in transfected cells
T2 sequence (P51531 whole entry): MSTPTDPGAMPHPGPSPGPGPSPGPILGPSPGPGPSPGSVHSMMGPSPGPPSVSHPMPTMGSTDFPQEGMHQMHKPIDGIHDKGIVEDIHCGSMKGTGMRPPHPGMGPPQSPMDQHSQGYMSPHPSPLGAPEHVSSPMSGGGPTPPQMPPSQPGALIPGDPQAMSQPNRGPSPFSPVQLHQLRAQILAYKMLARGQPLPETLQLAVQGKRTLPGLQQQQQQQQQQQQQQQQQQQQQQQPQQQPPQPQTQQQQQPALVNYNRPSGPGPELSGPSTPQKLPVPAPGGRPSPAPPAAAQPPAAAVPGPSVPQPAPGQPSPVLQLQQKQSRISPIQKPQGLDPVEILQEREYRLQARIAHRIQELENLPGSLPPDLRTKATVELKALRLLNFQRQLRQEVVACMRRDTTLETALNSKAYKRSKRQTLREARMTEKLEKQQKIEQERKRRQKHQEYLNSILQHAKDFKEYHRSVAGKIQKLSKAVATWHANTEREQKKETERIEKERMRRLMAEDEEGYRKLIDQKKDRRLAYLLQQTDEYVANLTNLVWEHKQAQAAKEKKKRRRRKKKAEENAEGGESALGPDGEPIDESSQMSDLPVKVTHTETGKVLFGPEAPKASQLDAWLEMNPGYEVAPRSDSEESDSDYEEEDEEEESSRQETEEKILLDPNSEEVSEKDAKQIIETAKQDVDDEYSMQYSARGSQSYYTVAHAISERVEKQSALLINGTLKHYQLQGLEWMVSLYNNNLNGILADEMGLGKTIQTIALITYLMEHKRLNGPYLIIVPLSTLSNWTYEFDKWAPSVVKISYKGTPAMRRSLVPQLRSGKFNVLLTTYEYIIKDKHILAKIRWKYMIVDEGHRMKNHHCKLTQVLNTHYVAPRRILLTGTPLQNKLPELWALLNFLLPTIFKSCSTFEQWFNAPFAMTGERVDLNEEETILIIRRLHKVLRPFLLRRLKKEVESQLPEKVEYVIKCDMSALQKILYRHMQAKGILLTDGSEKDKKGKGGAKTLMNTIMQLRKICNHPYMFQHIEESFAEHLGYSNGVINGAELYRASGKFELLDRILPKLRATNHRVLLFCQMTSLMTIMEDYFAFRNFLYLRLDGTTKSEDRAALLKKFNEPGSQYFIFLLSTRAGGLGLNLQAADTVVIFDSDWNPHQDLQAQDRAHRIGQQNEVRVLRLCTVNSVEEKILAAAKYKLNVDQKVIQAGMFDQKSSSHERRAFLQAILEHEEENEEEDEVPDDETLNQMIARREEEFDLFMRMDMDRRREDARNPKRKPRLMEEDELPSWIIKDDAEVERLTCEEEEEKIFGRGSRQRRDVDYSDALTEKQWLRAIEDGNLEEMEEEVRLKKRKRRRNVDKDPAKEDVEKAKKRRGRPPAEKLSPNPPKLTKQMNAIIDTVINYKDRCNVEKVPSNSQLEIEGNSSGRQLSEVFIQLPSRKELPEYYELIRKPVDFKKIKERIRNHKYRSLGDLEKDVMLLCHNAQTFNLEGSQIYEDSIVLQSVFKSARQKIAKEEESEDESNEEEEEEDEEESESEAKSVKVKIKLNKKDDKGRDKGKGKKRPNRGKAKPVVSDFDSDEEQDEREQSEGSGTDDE
Kind of experiment: HiBiT-BRM cell-based degradation assay (Nano-Glo HiBiT Lytic Detection). The settings on record: HeLa cells expressing HiBiT-BRM, 24 h; for DC50: read-out: BRM HiBit Degradation IC50. The essentials: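 HeLa cells stably expressing HiBiT-tagged BRM were treated for 24 h, then lysed with LgBiT-containing Nano-Glo reagent and luminescence read. % degradation scaled between DMSO (high control) and 2 μM reference BRM/BRG1 degrader (low control).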

T1 sequence (P51532 whole entry): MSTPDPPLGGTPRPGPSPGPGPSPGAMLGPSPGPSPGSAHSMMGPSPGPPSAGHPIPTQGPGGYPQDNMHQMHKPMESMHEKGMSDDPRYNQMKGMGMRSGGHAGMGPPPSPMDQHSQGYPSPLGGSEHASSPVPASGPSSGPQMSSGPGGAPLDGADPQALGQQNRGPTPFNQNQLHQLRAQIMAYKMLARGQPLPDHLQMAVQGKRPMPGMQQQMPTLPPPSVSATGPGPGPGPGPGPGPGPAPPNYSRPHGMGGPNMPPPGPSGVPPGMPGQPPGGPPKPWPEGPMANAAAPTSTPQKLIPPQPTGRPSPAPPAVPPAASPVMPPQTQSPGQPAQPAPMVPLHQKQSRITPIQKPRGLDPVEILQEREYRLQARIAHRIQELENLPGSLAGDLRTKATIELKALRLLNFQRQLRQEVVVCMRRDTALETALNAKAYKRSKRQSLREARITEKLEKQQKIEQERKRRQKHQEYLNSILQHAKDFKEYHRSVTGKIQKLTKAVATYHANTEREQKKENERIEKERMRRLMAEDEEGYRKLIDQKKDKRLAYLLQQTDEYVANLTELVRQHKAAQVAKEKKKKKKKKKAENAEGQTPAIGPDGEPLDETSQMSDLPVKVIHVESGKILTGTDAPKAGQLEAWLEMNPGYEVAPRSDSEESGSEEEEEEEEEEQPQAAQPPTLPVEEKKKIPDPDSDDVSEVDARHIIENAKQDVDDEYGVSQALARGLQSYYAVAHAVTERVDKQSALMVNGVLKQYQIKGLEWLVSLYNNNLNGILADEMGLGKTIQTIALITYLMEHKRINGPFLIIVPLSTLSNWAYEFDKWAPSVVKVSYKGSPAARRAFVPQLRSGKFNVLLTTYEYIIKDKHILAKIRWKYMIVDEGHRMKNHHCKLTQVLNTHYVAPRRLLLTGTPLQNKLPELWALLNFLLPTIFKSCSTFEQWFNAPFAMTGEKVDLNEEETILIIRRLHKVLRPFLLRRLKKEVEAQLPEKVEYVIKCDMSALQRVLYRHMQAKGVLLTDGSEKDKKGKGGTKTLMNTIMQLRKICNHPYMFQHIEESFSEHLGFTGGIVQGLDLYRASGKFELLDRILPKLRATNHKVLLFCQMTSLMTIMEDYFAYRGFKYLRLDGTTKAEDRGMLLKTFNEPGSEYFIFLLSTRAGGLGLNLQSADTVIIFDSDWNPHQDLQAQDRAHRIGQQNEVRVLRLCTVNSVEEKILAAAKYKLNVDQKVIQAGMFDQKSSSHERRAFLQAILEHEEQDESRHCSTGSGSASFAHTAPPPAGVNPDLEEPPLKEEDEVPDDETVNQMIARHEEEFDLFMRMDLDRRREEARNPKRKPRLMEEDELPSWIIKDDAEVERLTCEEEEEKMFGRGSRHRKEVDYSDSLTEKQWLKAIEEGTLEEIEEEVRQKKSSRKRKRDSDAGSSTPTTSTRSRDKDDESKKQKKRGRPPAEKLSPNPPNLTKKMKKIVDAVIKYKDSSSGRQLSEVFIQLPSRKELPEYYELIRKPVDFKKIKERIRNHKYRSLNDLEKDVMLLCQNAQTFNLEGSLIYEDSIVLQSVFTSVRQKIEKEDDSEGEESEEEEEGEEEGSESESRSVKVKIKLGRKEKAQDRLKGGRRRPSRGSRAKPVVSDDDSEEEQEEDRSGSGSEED

For the molecule `Cc1ncsc1-c1ccc(CNC(=O)[C@@H]2C[C@@H](O)CN2C(=O)[C@@H](NC(=O)CCN2[C@@H]3CC[C@H]2CN(C(=O)c2ccc(CCOc4cc(-c5ccccc5O)nnc4N)cc2)C3)C(C)(C)C)cc1` [Compound 216, (2S,4R)-1-((2S)-2-(3-(3-(4-(2-((3-amino-6-(2-hydroxyphenyl)pyridazin-4-yl)oxy)ethyl)benzoyl)-3,8-diazabicyclo[3.2.1]octan-8-yl)propanamido)-3,3-dimethylbutanoyl)-4-hydroxy-N-(4-(4-methylthiazol-5-yl)benzyl)pyrrolidine-2-carboxamide], in experiment [1], the DC50 was above 1000 nM and the Dmax is below 50%. Also, in experiment [2], the “BRM HiBit Degradation Maximum (%)” value is on record as “C (“C” indicates maximum degradation <50%)” and the DC50 is above 1000 nM.

For `Nc1nnc(-c2ccccc2O)cc1OCCc1ccc(CNC(=O)CCCCCCCOc2cccc3c2C(=O)N(C2CCC(=O)NC2=O)C3=O)cc1` (stereo not shown) [Compound 69, N-[[4-(2-[[3-amino-6-(2-hydroxyphenyl)pyridazin-4-yl]oxy]ethyl)phenyl]methyl]-8-[[2-(2,6-dioxopiperidin-3-yl)-1,3-dioxoisoindol-4-yl]oxy]octanamide], in experiment [1], the DC50 was above 1000 nM and the Dmax is below 50%. Also, in experiment [2], the “BRM HiBit Degradation Maximum (%)” value is recorded as “C (“C” indicates maximum degradation <50%)” and the DC50 is above 1000 nM.

In the case of `Cc1ncsc1-c1ccc([C@H](C)NC(=O)[C@@H]2C[C@@H](O)CN2C(=O)[C@@H](c2cc(OCCN3CCN(c4cc(-c5ccccc5O)nnc4N)CC3)no2)C(C)C)cc1` [Compound 217, (2S,4R)-1-((R)-2-(3-(2-(4-(3-amino-6-(2-hydroxyphenyl)pyridazin-4-yl)piperazin-1-yl)ethoxy)isoxazol-5-yl)-3-methylbutanoyl)-4-hydroxy-N-((S)-1-(4-(4-methylthiazol-5-yl)phenyl)ethyl)pyrrolidine-2-carboxamide], in experiment [1], the DC50 is above 1000 nM and the Dmax is below 50%. Besides, in experiment [2], the “BRM HiBit Degradation Maximum (%)” value is listed as “A (“A” indicates maximum degradation ≥75%)” and the DC50 is above 10 nM.

Regarding `Cc1ncsc1-c1ccc(CNC(=O)[C@@H]2C[C@@H](O)CN2C(=O)[C@@H](NC(=O)CCN2CCC(O)(C(=O)NCc3ccc(CCOc4cc(-c5ccccc5O)nnc4N)cc3)CC2)C(C)(C)C)cc1` [Compound 185, N-[[4-(2-[[3-amino-6-(2-hydroxyphenyl)pyridazin-4-yl]oxy]ethyl)phenyl]methyl]-4-hydroxy-1-(2-[[(2S)-1-[(2S,4R)-4-hydroxy-2-([[4-(4-methyl-1,3-thiazol-5-yl)phenyl]methyl]carbamoyl)pyrrolidin-1-yl]-3,3-dimethyl-1-oxobutan-2-yl]carbamoyl]ethyl)piperidine-4-carboxamide], in experiment [1], the DC50 was above 1000 nM and the Dmax was below 50%. Moreover, in experiment [2], the “BRM HiBit Degradation Maximum (%)” value is reported as “C (“C” indicates maximum degradation <50%)” and the DC50 was above 1000 nM.

For the molecule `Cc1ncsc1-c1ccc(CNC(=O)[C@@H]2C[C@@H](O)CN2C(=O)[C@@H](NC(=O)CCCCCCCCCNC(=O)CN2CCN(c3cc(-c4ccccc4O)nnc3N)CC2)C(C)(C)C)cc1` [Compound 102, (2S,4R)-1-[(2S)-2-[10-(2-[4-[3-amino-6-(2-hydroxyphenyl)pyridazin-4-yl]piperazin-1-yl]acetamido)decanamido]-3,3-dimethylbutanoyl]-4-hydroxy-N-[[4-(4-methyl-1,3-thiazol-5-yl)phenyl]methyl]pyrrolidine-2-carboxamide], in experiment [1], the DC50 was above 1000 nM and the Dmax was below 50%. Moreover, in experiment [2], the “BRM HiBit Degradation Maximum (%)” value was “A (“A” indicates maximum degradation ≥75%)” and the DC50 is above 100 nM.

As to `Nc1nnc(-c2ccccc2O)cc1OCCc1ccc(CNC(=O)CCCCOc2ccc3c(c2)C(=O)N(C2CCC(=O)NC2=O)C3=O)cc1` (stereo not shown) [Compound 5, N-(4-(2-((3-amino-6-(2-hydroxyphenyl)pyridazin-4-yl)oxy)ethyl)benzyl)-5-((2-(2,6-dioxopiperidin-3-yl)-1,3-dioxoisoindolin-5-yl)oxy)pentanamide], in experiment [1], the DC50 is above 1000 nM. Also, in experiment [2], the “BRM HiBit Degradation Maximum (%)” value is listed as “C (“C” indicates maximum degradation <50%)” and the DC50 is above 1000 nM.

For `Cc1nc2cccc(NCCCCCCNC(=O)c3ccc(CCOc4cc(-c5ccccc5O)nnc4N)cc3)c2c(=O)n1C1CCC(=O)NC1=O` (stereo not shown) [Compound 52, 4-(2-[[3-amino-6-(2-hydroxyphenyl)pyridazin-4-yl]oxy]ethyl)-N-(6-[[3-(2,6-dioxopiperidin-3-yl)-2-methyl-4-oxoquinazolin-5-yl]amino]hexyl)benzamide], in experiment [1], the DC50 was above 1000 nM and the Dmax was below 50%. In experiment [2], the “BRM HiBit Degradation Maximum (%)” value is recorded as “C (“C” indicates maximum degradation <50%)” and the DC50 is above 1000 nM.

On to `Nc1nnc(-c2ccccc2O)cc1OCCc1ccc(CNCCN2CCN(c3cccc4c3C(=O)N(C3CCC(=O)NC3=O)C4=O)CC2=O)cc1` (stereo not shown) [Compound 153, 4-(4-(2-((4-(2-((3-amino-6-(2-hydroxyphenyl)pyridazin-4-yl)oxy)ethyl)benzyl)amino)ethyl)-3-oxopiperazin-1-yl)-2-(2,6-dioxopiperidin-3-yl)isoindoline-1,3-dione], for which, in experiment [1], the DC50 is above 1000 nM and the Dmax was below 50%. Also, in experiment [2], the “BRM HiBit Degradation Maximum (%)” value was “C (“C” indicates maximum degradation <50%)” and the DC50 was above 1000 nM.

For the molecule `Cc1nc2cccc(NCCOCCOCCNC(=O)c3ccc(CCOc4cc(-c5ccccc5O)nnc4N)cc3)c2c(=O)n1C1CCC(=O)NC1=O` (stereo not shown) [Compound 48, 4-(2-[[3-amino-6-(2-hydroxyphenyl)pyridazin-4-yl]oxy]ethyl)-N-[2-[2-(2-[[3-(2,6-dioxopiperidin-3-yl)-2-methyl-4-oxoquinazolin-5-yl]amino]ethoxy)ethoxy]ethyl]benzamide], in experiment [1], the DC50 is above 1000 nM and the Dmax was below 50%. In addition, in experiment [2], the “BRM HiBit Degradation Maximum (%)” value is reported as “C (“C” indicates maximum degradation <50%)” and the DC50 was above 1000 nM.

In the case of `Nc1nnc(-c2ccccc2O)cc1OCCc1ccc(CNC(=O)CCCCCOc2cccc3c2C(=O)N(C2CCC(=O)NC2=O)C3=O)cc1` (stereo not shown) [Compound 63, N-[[4-(2-[[3-amino-6-(2-hydroxyphenyl)pyridazin-4-yl]oxy]ethyl)phenyl]methyl]-6-[[2-(2,6-dioxopiperidin-3-yl)-1,3-dioxoisoindol-4-yl]oxy]hexanamide], in experiment [1], the DC50 is above 1000 nM and the Dmax was below 50%. Further, in experiment [2], the “BRM HiBit Degradation Maximum (%)” value is listed as “B (“B” indicates maximum degradation ≥50%)” and the DC50 was above 100 nM.

For the molecule `Nc1nnc(-c2ccccc2O)cc1OCCc1ccc(CNC(=O)C2CC2CNC(=O)COc2cccc3c2C(=O)N(C2CCC(=O)NC2=O)C3=O)cc1` (stereo not shown) [Compound 7, N-[[4-(2-[[3-amino-6-(2-hydroxyphenyl)pyridazin-4-yl]oxy]ethyl)phenyl]methyl]-2-[(2-[[2-(2,6-dioxopiperidin-3-yl)-1,3-dioxoisoindol-4-yl]oxy]acetamido)methyl]cyclopropane-1-carboxamide], in experiment [1], the DC50 is above 1000 nM and the Dmax is below 50%. In experiment [2], the “BRM HiBit Degradation Maximum (%)” value is “C (“C” indicates maximum degradation <50%)” and the DC50 was above 1000 nM.
